The results in this text go back to patent publication US7595401B2, “Therapeutic compounds and their use in cancer” (Myriad Pharmaceuticals, Inc., priority 2006, dated 2009).

Each structure is given as a SMILES string. pIC50: −log10 of the molar value. A value given as a limit tells only on which side of the number the result lay.

A word on the % Inhibition: it is the relative decrease from the control value, in per cent. A word on the pIC50: it is −log10 of the IC50, conventionally taken in molar units. Read a low pIC50 as a high IC50.

The first experiment relates to purified human Hsp90. The experiment in a line: Binding Assay: fluorescence polarization with BODIPY-labeled geldanamycin. The note with it: 5 μM compound, BODIPY-GM 10 nM, Hsp90 30 nM. The essentials: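 Fluorescence polarization competition with BODIPY-geldanamycin (10 nM final) and human Hsp90 (30 nM final) in HEPES-KOH pH 7.3 buffer with molybdate, NP-40, DTT; 2% DMSO, overnight at room temperature. Read 485/530 nm; percent inhibition from mP normalized to DMSO controls, fluorescent-compound points excluded.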
Take `Nc1ncn(CCc2ccc3ccccc3c2)c2nc(Sc3cc4c(cc3Br)OCO4)nc1-2` [Example 303, 8-[(6-Bromo-1,3-benzodioxol-5-yl)thio]-3-[2-(2-naphthyl)ethyl]-3H-purin-6-amine]: the “% Inhibition at 5 μM Compound Concentration” value (shortened to “% Inhibition”) was determined as 21.0%.
For the compound `Nc1ncn(CCc2ccccc2[N+](=O)[O-])c2nc(Sc3cc4c(cc3Br)OCO4)nc1-2` [Example 208, 8-(6-bromo-benzo[1,3]dioxol-5-ylsulfanyl)-3-[2-(2-nitro-phenyl)-ethyl]-3H-purin-6-ylamine], the “% Inhibition” value is given as 46%.
On the same count and under the same terms, to `CN1C2CCC1CC(CCn1cnc(N)c3nc(Sc4cc5c(cc4Br)OCO5)nc1-3)C2` (stereo not drawn) [Example 427, 8-[(6-Bromo-1,3-benzodioxol-5-yl)thio]-3-{2-[(3-endo)-8-methyl-8-azabicyclo[3.2.1]oct-3-yl]ethyl}-3H-purin-6-amine] belongs 32%.
As to `CCC(CC)N1CCN(CCn2cnc(N)c3nc(Sc4cc(OC)ccc4OC)nc2-3)CC1` [Example 628, 8-[(2,5-Dimethoxyphenyl)thio]-3-{2-[4-(1-ethylpropyl)piperazin-1-yl]ethyl}-3 H-purin-6-amine], the “% Inhibition” value is given as 23.00%.
On the same count and under the same terms, to `COc1ccc(OC)c(Sc2nc3c(N)ncn(CCc4ccc(-c5ccccc5)cc4)c-3n2)c1` [Example 182, 3-(2-biphenyl-4-yl-ethyl)-8-(2,5-dimethoxy-phenylsulfanyl)-3H-purin-6-ylamine] belongs greater than 10%; to `COc1ccc(OC)c(Sc2nc3c(N)ncnc3n2CCCc2ccccc2)c1` [Example 3, 8-(2,5-Dimethoxy-phenylsulfanyl)-9-(3-phenyl-propyl)-9H-purin-6-ylamine], 36%.
On the same count and under the same terms, to `COc1ccc(C)cc1Sc1nc2c(N)ncn(CCc3ccccc3Cl)c-2n1` [Example 325, 3-[2-(2-Chlorophenyl)ethyl]-8-[(2-methoxy-5-methylphenyl)thio]-3H-purin-6-amine] belongs 0.0%; to `COc1ccc(OC)c(Sc2nc3c(N)ncnc3n2CCc2ccccc2[N+](=O)[O-])c1` [Example 205, 8-(2,5-Dimethoxy-phenylsulfanyl)-9-[2-(2-nitro-phenyl)-ethyl]-9H-purin-6-ylamine], 80%; to `Nc1ncnc2c1nc(Sc1ccc3c(c1)OCO3)n2CCc1ccccc1` [Example 4, 8-(Benzo[1,3]dioxol-5-ylsulfanyl)-9-phenethyl-9H-purin-6-ylamine], 75%.
Same read-out and setting: then `COc1ccc(OC)c(Sc2nc3c(N)ncn(CCc4ccccn4)c-3n2)c1` [Example 136, 8-(2,5-Dimethoxy-phenylsulfanyl)-3-(2-pyridin-2-yl-ethyl)-3H-purin-6-ylamine], with 16%; and `N#Cc1cc2c(cc1Sc1nc3c(N)ncn(CCc4ccccc4Cl)c-3n1)OCO2` [Example 327, 6-({6-Amino-3-[2-(2-chlorophenyl)ethyl]-3H-purin-8-yl}thio)-1,3-benzodioxole-5-carbonitrile], with 33.0%.
Turning to `CC(C)(C)OC(=O)N1CCC(CCn2cnc(N)c3nc(Sc4cc5c(cc4Br)OCO5)nc2-3)C1` (centres unmarked) [Example 413, tert-Butyl 3-(2-{6-amino-8-[(6-bromo-1,3-benzodioxol-5-yl)thio]-3H-purin-3-yl}ethyl)pyrrolidine-1-carboxylate], the “% Inhibition” value is on record as 28%.
On the same count and under the same terms, then `COc1ccc(C2(Cn3cnc(N)c4nc(Sc5cc6c(cc5Br)OCO6)nc3-4)CC2)cc1` [Example 60, 8-(6-bromo-benzo[1,3]dioxol-5-ylsulfanyl)-3-[1-(4-methoxy-phenyl)-cyclopropylmethyl]-3H-purin-6-ylamine], with 30%.

The same experiment, now with this note: BODIPY-GM 10 nM, Hsp90 30 nM.
Compound `CC(C)(C)OC(=O)N1CCC(Cn2c(Sc3cc4c(cc3Br)OCO4)nc3c(N)ncnc32)CC1` [Example 639, tert-Butyl 4-({6-amino-8-[(6-bromo-1,3-benzodioxol-5-yl)thio]-9 H-purin-9-yl}methyl)piperidine-1-carboxylate] gave a pIC50 of 6.05.
On to `Nc1ncn(CCc2ccccc2[N+](=O)[O-])c2nc(Sc3cc4c(cc3Br)OCO4)nc1-2` [Example 208, 8-(6-bromo-benzo[1,3]dioxol-5-ylsulfanyl)-3-[2-(2-nitro-phenyl)-ethyl]-3H-purin-6-ylamine], for which the pIC50 is less than 4.60.
The same measure, in the same setting: then `Cc1ccccc1CCn1c(Sc2cc3c(cc2Br)OCO3)nc2c(N)ncnc21` [Example 155, 8-(6-Bromo-benzo[1,3]dioxol-5-ylsulfanyl)-9-(2-o-tolyl-ethyl)-9H-purin-6-ylamine], with 7.02; and `COc1cccc(CCn2cnc(N)c3nc(Sc4cc(OC)ccc4OC)nc2-3)c1` [Example 36, 8-(2,5-dimethoxy-phenylsulfanyl)-3-[2-(3-methoxy-phenyl)-ethyl]-3H-purin-6-ylamine], with less than 5.30.
On the same count and under the same terms, then `Nc1ncnc2c1nc(Sc1cc3c(cc1Br)OCO3)n2CCC1CCN(C(=O)C2CCCC2)CC1` [Example 510, 8-[(6-Bromo-1,3-benzodioxol-5-yl)thio]-9-{2-[1-(cyclopentylcarbonyl)piperidin-4-yl]ethyl}-9 H-purin-6-amine], with 6.60; and `CC(=O)N1CCC(CCn2c(Sc3cc(Br)c4c(c3)CCO4)nc3c(N)ncnc32)CC1` [Example 530, 9-[2-(1-Acetylpiperidin-4-yl)ethyl]-8-[(7-bromo-2,3-dihydro-1-benzofuran-5-yl)thio]-9 H-purin-6-amine], with 5.60.
Consider `Nc1ncnc2c1nc(Sc1cc3c(cc1Br)OCO3)n2CC[C@H]1CC[C@@H](N)CC1` [Example 481, 9-[2-(cis-4-Aminocyclohexyl)ethyl] 8-[(6-bromo-1,3-benzodioxol-5-yl)thio]-9 H-purin-6-amine], for which the negative-log IC50 (pIC50) is 7.30.
Still for that read-out and setting: then `CC1(C)C(C(=O)N2CCC(CCn3c(Sc4cc5c(cc4Br)OCO5)nc4c(N)ncnc43)CC2)C1(C)C` [Example 520, 8-[(6-Bromo-1,3-benzodioxol-5-yl)thio]-9-(2-{1-[(2,2,3,3-tetramethylcyclopropyl)carbonyl]piperidin-4-yl}ethyl)-9 H-purin-6-amine], with less than 5.70; and `COc1ccc(OC)c(Sc2nc3c(N)ncnc3n2CCc2cccc([N+](=O)[O-])c2)c1` [Example 223, 8-(2,5-Dimethoxy-phenylsulfanyl)-9-[2-(3-nitro-phenyl)-ethyl]-9H-purin-6-ylamine], with 6.30; and `CC1(C)COC(CCn2c(Sc3cc4c(cc3Br)OCO4)nc3c(N)ncnc32)CN1` (centres unmarked) [Example 601, 8-[(6-Bromo-1,3-benzodioxol-5-yl)thio]-9-[2-(5,5-dimethylmorpholin-2-yl)ethyl]-9 H-purin-6-amine], with less than 5.10.
Same read-out and setting: to `Nc1ncnc2c1nc(Sc1cc3c(cc1Br)OCO3)n2CCN1CCOC1=O` [Example 586, 3-(2-{6-Amino-8-[(6-bromo-1,3-benzodioxol-5-yl)thio]-9 H-purin-9-yl}ethyl)-1,3-oxazolidin-2-one] belongs 6.35.
Same read-out and setting: to `Nc1ncnc2c1nc(Cc1cc3c(cc1Br)OCO3)n2CCc1ccccc1` [Example 209, 8-(6-Bromo-benzo[1,3]dioxol-5-ylmethyl)-9-phenethyl-9H-purin-6-ylamine] belongs 6.35; to `COc1ccc(OC)c(Sc2nc3c(N)ncn(CCc4cccc(F)c4)c-3n2)c1` [Example 38, 8-(2,5-dimethoxy-phenylsulfanyl)-3-[2-(3-fluoro-phenyl)-ethyl]-3H-purin-6-ylamine], less than 5.00; to `Nc1ncnc2c1nc(Sc1cc3c(cc1Br)OCO3)n2CC[C@@H]1CCCNC1` [Example 474, 8-[(6-Bromo-1,3-benzodioxol-5-yl)thio]-9-{2-[(3S)-piperidin-3-yl]ethyl}-9 H-purin-6-amine], 6.85.
`COc1ccc(OC)c(Sc2nc3c(N)ncnc3n2CCc2ccc(O)cc2)c1` [Example 75, 4-{2-[6-Amino-8-(2,5-dimethoxy-phenylsulfanyl)-purin-9-yl]-ethyl}-phenol] gave a pIC50 of 5.54.
The same measure, in the same setting: to `COc1ccc(OC)c(Sc2nc3c(N)ncn(CCN4CCN(C(C)=O)CC4)c-3n2)c1` [Example 630, 3-[2-(4-Acetylpiperazin-1-yl)ethyl]-8-[(2,5-dimethoxyphenyl)thio]-3 H-purin-6-amine] belongs 5.05; to `Cc1ccsc1Sc1nc2c(N)ncnc2n1CCC1CCN(C=O)CC1` [Example 546, 4-(2-{6-Amino-8-[(3-methyl-2-thienyl)thio]-9 H-purin-9-yl}ethyl)piperidine-1-carbaldehyde], less than 5.30; to `COc1ccc(OC)c(Sc2nc3c(N)ncnc3n2CCc2ccccc2[N+](=O)[O-])c1` [Example 205, 8-(2,5-Dimethoxy-phenylsulfanyl)-9-[2-(2-nitro-phenyl)-ethyl]-9H-purin-6-ylamine], 6.62.
Same read-out and setting: to `COc1ccc(OC)c(Sc2nc3c(N)ncnc3n2C2Cc3ccccc3C2O)c1` (centres unmarked) [Example 235, 2-{6-Amino-8-[(2,5-dimethoxyphenyl)thio]-9H-purin-9-yl}indan-1-ol] belongs less than 5.10.
`Nc1ncnc2c1nc(Sc1ccc3c(c1)OCO3)n2CCc1ccccc1` [Example 4, 8-(Benzo[1,3]dioxol-5-ylsulfanyl)-9-phenethyl-9H-purin-6-ylamine] showed a pIC50 of 6.19.
The same measure, in the same setting: then `COc1ccc(F)cc1Sc1nc2c(N)ncnc2n1CCc1ccccc1` [Example 312, 8-[(5-Fluoro-2-methoxyphenyl)thio]-9-(2-phenylethyl)-9H-purin-6-amine], with less than 4.60; and `COc1ccc(OC)c(Sc2nc3c(N)ncnc3n2CCC(NS(C)(=O)=O)C2CC2)c1` (centres unmarked) [Example 676, N-(3-{6-Amino-8-[(2,5-dimethoxyphenyl)thio]-9H-purin-9-yl}-1-cyclopropylpropyl)methanesulfonamide], with 6.02.
The compound `COc1ccc(OC)c(Sc2nc3c(N)ncnc3n2CCN2CCN(C)CC2)c1` [Example 631, 8-[(2,5-Dimethoxyphenyl)thio]-9-[2-(4-methylpiperazin-1-yl)ethyl]-9 H-purin-6-amine] had a pIC50 of 5.70.
The same measure, in the same setting: to `CS(=O)(=O)N1CCC(CCn2c(Sc3cc4c(cc3Br)OCO4)nc3c(N)ncnc32)CC1` [Example 378, 8-[(6-Bromo-1,3-benzodioxol-5-yl)thio]-9-{2-[1-(methylsulfonyl)piperidin-4-yl]ethyl}-9H-purin-6-amine] belongs 6.62; to `COc1ccc(OC)c(Sc2nc3c(N)ncnc3n2CCC2CCN(C(=O)OC(C)(C)C)CC2)c1` [Example 342, tert-Butyl 4-(2-{6-amino-8-[(2,5-dimethoxyphenyl)thio]-9H-purin-9-yl}ethyl)piperidine-1-carboxylate], 4.72.
